Experimental data: US5616615A, “Enaminone esters” (priority 1995, dated 1997)
Where two headings read alike, the source gives them in different places.

Tests used:
pentylenetetrazol = test: Phase V quantification against pentylenetetrazol; format: in vivo; conditions: dose not given
Experimental: (§1) Both 12 and 27 were evaluated in Phase V of the ADD Program evaluation scheme. Phase V provides quantification against bicuculline, picrotoxin, pentylenetetrazol, and strychnine. This screen provides information on the mechanism of action of the anticonvulsant activity. Bicuculline, picrotoxin, and strychnine correspond to GABA inhibitory function, chloride channel inhibition and inhibition by glycine respectively.

picrotoxin = test: Phase V quantification against picrotoxin; format: in vivo; conditions: dose not given
Experimental: as §1

[1] = test system: Amygdala Kindled Seizures; test: Suppression of amygdala kindled seizures; format: in vivo
Experimental: Compounds 12 and 27 were evaluated in our laboratory for suppression of amygdala kindled seizures.

Corneal Kindled rats = test: Corneal kindling; format: in vivo; conditions: for Ave. seizure score: ranking 0-5; for ED50: Rattus norvegicus
Experimental: Corneal kindling studies were performed in our laboratories on 12 and 27 and the results are shown in Tables XI and XII and FIGS. 1A and 1B. Comparative data for the commercial products are included. Seizures evoked in electroshock-kindled rats provide a suitable model consistent with complex partial seizures evolving into generalized motor seizures in humans.
^a Rats kindled to Stage 5. Endpoint was reduction from Stage 5 to […]

seizures = test: Anticonvulsant evaluation (ASP phase I / overall); format: in vivo, mice
Procedure, shortened: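 Male Carworth Farms #1 mice; maximal electroshock seizures elicited by 60-cycle AC, 50 mA, 0.2 s via corneal electrodes after a drop of 0.9% saline in the eye. Animals observed for 30 minutes.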

Neurotoxicity, rats ip = conditions: 100 mg/kg
Experimental: The rotorod test is used to elevate neurotoxicity. The animal is placed on a 1 inch diameter knurled plastic rod rotating at 6 rpm. […] Neurologic toxicity is defined as the failure of the animal to remain on the rod for 1 minute and the results are expressed as the number of animals protected/the number of animals tested.
The toxicity evaluation for the commercial agents as previously indicated was based on the onset of ataxia.

bicuculline = test: Phase V quantification against bicuculline; format: in vivo; conditions: dose not given
Experimental: as §1

Kinetic hydrolysis = format: physicochemical; conditions: for average absorbance value: over incubation periods
Experimental: This solution was 4.0×10^-5 M. Phosphate buffer, pH 7.4 and water were used in this study. All experiments were performed in triplicate. A volume of the stock ethanol solution of 1 (0.2 mL), was diluted with the appropriate solvent to make 1 mL of solution. Each mixture was sealed in a Teflon capped reaction vial and incubated at 37° C. for the same time periods as indicated in the ip rat toxicity study (Tables X and X-A). After each time period, the vials were removed from the incubator and quenched at -80° C. until ready for analysis. Initial scan (t=O h) indicated a λ max at 311 nm for 27. […] After all samples were incubated, the UV spectra was taken from 190-500 nm using the respective solvent as a blank. The results were plotted in terms of absorbance v, time of incubation and the absorbance values.

adenosine uptake = adenosine uptake assay
[2] = test system: bicuculline, picrotoxin, pentylenetetrazol, and strychnine; conditions: in vivo
Experimental: as §1

in vivo [3] = conditions: rat, po
From the text: (§2) This oral screen is designated as phase VI.

strychnine = test: Phase V quantification against strychnine; format: in vivo; conditions: dose not given
Experimental: as §1

[4] = test system: Maximal electroshock seizures; test: MES maximal electroshock seizure test, mice ip; format: in vivo; set-up: TPE (time of peak effect), activity: unit not given here; conditions: ip; for responders at 100 mg/kg: read-out: MES, animals protected/tested (converted); for responders at 300 mg/kg: read-out: MES, animals protected/tested
Experimental: Three tests were performed:
1. MES--Electroshock Seizure Test
(§3) Maximal electroshock seizures are elicited with a 60-cycle alternating current of 50 mA intensity (5-7 times that necessary to elicit minimal electroshock seizures) delivered via corneal electrodes for 0.2 seconds. A drop of 0.9% saline is instilled in the eye prior to application of the electrodes in order to […].

benzodiazepine receptor = benzodiazepine receptor binding evaluation
[5] = test system: Subcutaneous Pentylenetetrazol seizure; test: sc Met subcutaneous pentylenetetrazol (Metrazol) seizure test, mice; format: in vivo; conditions: Mus musculus, sc, read-out: scMet, animals protected/tested (converted)
Experimental: The first phase of the ADD Program involved performing tests on male Carworth Farms #1 mice. […] Three tests were performed:
2. sc Met--Subcutaneous Pentylenetetrazol (Metrazol^R) Seizure Test
The animal is observed for 30 minutes. Failure to observe even a threshold seizure (a single episode of clonic spasms of at least 5 seconds duration) is defined as protection and the results are expressed as the number of animals protected/the number of animals tested.

[6] = test system: Maximal electroshock seizures; test: Phase VI oral MES test, rats; format: in vivo; conditions: oral; for responders at 6 mg/kg / responders at 10 mg/kg: Rattus norvegicus, read-out: MES, animals protected/tested (converted)
From the text: as §3, §2

in vivo [7] = conditions: mouse, in vivo, ip
GABA receptor = GABA receptor binding test

COC(=O)C1C(=O)C=C(Nc2ccc(Cl)cc2)CC1C (centres unmarked) [Compound 27]
protection against pentylenetetrazol (pentylenetetrazol): uniformly inactive | protection against picrotoxin (picrotoxin): uniformly inactive | Afterdischarge Amygdala: Duration ([1]; 350 mg/kg): 79.8 s | Afterdischarge Cortex: Duration ([1]; 350 mg/kg): 79.6 s | Afterdischarge Cortex: Latency ([1]; 350 mg/kg): 2.7 s | Behavioral Seizure: Duration ([1]; 350 mg/kg): 82.3 s | Behavioral Seizure: Latency ([1]; 350 mg/kg): 2.1 s | Forelimb Clonus: Duration ([1]; 350 mg/kg): 45.3 s | Forelimb Clonus: Latency ([1]; 350 mg/kg): 9.2 s | Seizure Stage ([1]; 350 mg/kg): 5.0 | suppression of amygdala kindled seizures ([1]; in vivo): no significant activity | % Reduction (Corneal Kindled rats; 20 mg/kg): 40% | Ave. seizure score (Corneal Kindled rats; 20 mg/kg): 3.0 | % Reduction (Corneal Kindled rats; 30 mg/kg): 40% | Ave. seizure score (Corneal Kindled rats; 30 mg/kg): 3.0 | % Reduction (Corneal Kindled rats; 40 mg/kg): 49% | Ave. seizure score (Corneal Kindled rats; 40 mg/kg): 2.6 | % Reduction (Corneal Kindled rats; 50 mg/kg): 87% | Ave. seizure score (Corneal Kindled rats; 50 mg/kg): 1.7 | ED50 (Corneal Kindled rats; po, 0.5 h, read-out: ED50 (reduction from Stage 5 to Stage 4)): 31.2 mg/kg | ED50 (Corneal Kindled rats; read-out: ED50, corneal kindling): 31.2 mg/kg | activity compared with benzylamine counterpart (seizures; 27 vs 16, 28 vs 17, 29 vs 20): activity is enhanced in all cases | minimal effective dose (seizures; Mus musculus, ip, Phase I, read-out: ASP Classification): < 100 mg/kg | anticonvulsant activity (seizures; mouse, in vivo): anticonvulsant activity was observed | animals displaying neurotoxicity/tested (Neurotoxicity, rats ip; 0.25 h (Table X-A)): 0/8 | animals displaying neurotoxicity/tested (Neurotoxicity, rats ip; 0.50 h (Table X-A)): 3/8 | animals displaying neurotoxicity/tested (Neurotoxicity, rats ip; 1.00 h (Table X-A)): 6/8 | animals displaying neurotoxicity/tested (Neurotoxicity, rats ip; 2.00 h (Table X-A)): 7/8 | animals displaying neurotoxicity/tested (Neurotoxicity, rats ip; 4.00 h (Table X-A)): 2/8 | animals displaying neurotoxicity/tested (Neurotoxicity, rats ip; 6.00 h (Table X-A)): 1/8 | animals displaying neurotoxicity/tested (Neurotoxicity, rats ip; 8.00 h (Table X-A)): 0/8 | animals displaying neurotoxicity/tested (Neurotoxicity, rats ip; 24.00 h (Table X-A)): 2/8 | protection against bicuculline (bicuculline): uniformly inactive | average absorbance value (Kinetic hydrolysis; aqueous media, 37° C.): 0.929 (range 0.789-1.069) | average absorbance value (Kinetic hydrolysis; pH 7.4 buffer, 37° C.): 1.112 (range 0.983-1.240) | change of wavelength (λ max) on incubation (Kinetic hydrolysis; water and pH 7.4 buffer, 37° C.): the wavelength did not change from 311 nm | significance of absorbance differences (Kinetic hydrolysis; water vs pH 7.4 buffer): not significant | adenosine uptake (adenosine uptake): inactive | threshold to chemostimulants [2]: did not lower the threshold to these chemostimulants | TD50 (in vivo [3]): > 380 mg/kg | selectivity ratio (in vivo [3]): 65.6 | Tox, animals toxic/tested (in vivo [3]; 6 mg/kg): 0/4 | Tox, animals toxic/tested (in vivo [3]; 10 mg/kg): 0/4 | protection against strychnine (strychnine): uniformly inactive | responders at 100 mg/kg ([4]; Mus musculus, 0.5 h, 30 min): 100% | responders at 300 mg/kg ([4]; Mus musculus, 0.5 h, 30 min): 100% | responders at 100 mg/kg ([4]; Mus musculus, 4 h, 4 h): 0% | responders at 300 mg/kg ([4]; Mus musculus, 4 h, 4 h): 100% | ED50 ([4]; Mus musculus, Phase II, time of peak effect): 26.2 mg/kg | TPE (time of peak effect), activity ([4]; Phase II): 0.5 | benzodiazepine receptor binding (benzodiazepine receptor): inactive | responders at 100 mg/kg ([5]; 0.5 h, 30 min): 0% | responders at 300 mg/kg ([5]; 0.5 h, 30 min): 0% | responders at 100 mg/kg ([5]; 4 h, 4 h): 0% | responders at 300 mg/kg ([5]; 4 h, 4 h): 0% | ED50 ([6]; Phase VI, rat): 5.79 mg/kg | responders at 6 mg/kg ([6]; 0.5 h, 0.50 h): 75% | responders at 10 mg/kg ([6]; 0.5 h, 0.50 h): 100% | responders at 6 mg/kg ([6]; 1.00 h): 50% | responders at 6 mg/kg ([6]; 2.00 h): 25% | responders at 10 mg/kg ([6]; 0.25 h): 75% | responders at 10 mg/kg ([6]; 1.00 h): 100% | responders at 10 mg/kg ([6]; 2.00 h): 100% | responders at 10 mg/kg ([6]; 4.00 h): 75% | TD50 (in vivo [7]): 255 mg/kg | TPE (time of peak effect), toxicity (in vivo [7]): 2 | selectivity ratio (in vivo [7]): 9.72 | GABA receptor binding (GABA receptor): inactive
